Measurements from ChEMBL document CHEMBL1201862, “PubChem BioAssay data set” (2004).
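1) Cells in 96-well plates. 2) Compound, 48 h, 5 concentrations. 3) Linear interpolation between surrounding doses. 4) Unreached endpoint = highest concentration. GI50: concentration for 50% inhibition of growth.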 Calls of active or inactive are those of the source. No stated cut-off is given here; in the data, active = GI50 up to about 1.1 µM and inactive = higher.

How the values were obtained:
Assay in all cases: NCI-60 cell line screen, 48 h
A549 = test system: A549
Hs-578T = test system: Hs-578T
K562 = test system: K562
KM12 = test system: KM12
M14 = test system: M14
MOLT-4 = test system: MOLT-4
OVCAR-5 = test system: OVCAR-5
OVCAR-8 = test system: OVCAR-8
PC-3 = test system: PC-3
RXF 393 = test system: RXF 393
SF-268 = test system: SF-268
SK-MEL-5 = test system: SK-MEL-5
SNB-75 = test system: SNB-75
T47D = test system: T47D
U-251 = test system: U-251
CAKI-1 = test system: CAKI-1
CCRF-CEM = test system: CCRF-CEM
SK-MEL-2 = test system: SK-MEL-2
SK-OV-3 = test system: SK-OV-3
UACC-62 = test system: UACC-62

Row | SMILES | GI50 (A549) | GI50 (Hs-578T) | GI50 (K562) | GI50 (KM12) | GI50 (M14) | GI50 (MOLT-4) | GI50 (OVCAR-5) | GI50 (OVCAR-8) | GI50 (PC-3) | GI50 (RXF 393) | GI50 (SF-268) | GI50 (SK-MEL-5) | GI50 (SNB-75) | GI50 (T47D) | GI50 (U-251) | GI50 (CAKI-1) | GI50 (CCRF-CEM) | GI50 (SK-MEL-2) | GI50 (SK-OV-3) | GI50 (UACC-62)
1 | CC(=O)Nc1ccc(Nc2cc(O)nc(O)n2)cc1 | > 100 µM (inactive) | > 100 µM (inactive) | > 100 µM (inactive) | > 100 µM (inactive) | > 100 µM (inactive) | 18.2 µM (inactive) | > 100 µM (inactive) | > 100 µM (inactive) | > 100 µM (inactive) | > 100 µM (inactive) | > 100 µM (inactive) | > 100 µM (inactive) | > 100 µM (inactive) | 14.1 µM (inactive) | > 100 µM (inactive) | – | – | – | – | –
2 | O=C(O)C1(Nc2ccc(Cl)cc2)CCCC1 | > 100 µM (inactive) | > 100 µM (inactive) | > 100 µM (inactive) | > 100 µM (inactive) | > 100 µM (inactive) | – | > 100 µM (inactive) | > 100 µM (inactive) | > 100 µM (inactive) | > 100 µM (inactive) | > 100 µM (inactive) | > 100 µM (inactive) | > 100 µM (inactive) | > 100 µM (inactive) | > 100 µM (inactive) | > 100 µM (inactive) | > 100 µM (inactive) | > 100 µM (inactive) | > 100 µM (inactive) | > 100 µM (inactive)
3 | c1ccc(C[N+]23C(CC[C@H]2c2ccccc2)CC[C@H]3c2ccccc2)cc1 (some centres undefined) | 36.6 µM (inactive) | 49.5 µM (inactive) | 9.38 µM (inactive) | 21.8 µM (inactive) | 21.6 µM (inactive) | 27.9 µM (inactive) | 86.1 µM (inactive) | 30.2 µM (inactive) | 26.7 µM (inactive) | 18.3 µM (inactive) | 43.5 µM (inactive) | 5.43 µM (inactive) | 21.4 µM (inactive) | 8.47 µM (inactive) | 25.3 µM (inactive) | > 100 µM (inactive) | 27.4 µM (inactive) | 29.9 µM (inactive) | 67.9 µM (inactive) | –
4 | CCc1n[nH]c(=O)n1/N=C(\C)c1ccccc1 | > 100 µM (inactive) | > 100 µM (inactive) | > 100 µM (inactive) | > 100 µM (inactive) | > 100 µM (inactive) | > 100 µM (inactive) | > 100 µM (inactive) | > 100 µM (inactive) | > 100 µM (inactive) | > 100 µM (inactive) | > 100 µM (inactive) | > 100 µM (inactive) | – | > 100 µM (inactive) | > 100 µM (inactive) | > 100 µM (inactive) | > 100 µM (inactive) | > 100 µM (inactive) | – | > 100 µM (inactive)
5 | COc1cccc2c1OC(c1cccc3ccccc13)C([N+](=O)[O-])=C2 (centres undefined) | 1.95 µM (inactive) | 2.48 µM (inactive) | 0.685 µM (active) | 1.63 µM (inactive) | 1.31 µM (inactive) | 0.552 µM (active) | 1.82 µM (inactive) | 4.24 µM (inactive) | 0.902 µM (active) | 1.31 µM (inactive) | 2.96 µM (inactive) | 1.59 µM (inactive) | 1.32 µM (inactive) | 2.22 µM (inactive) | 1.56 µM (inactive) | 2.33 µM (inactive) | 0.312 µM (active) | – | 3.11 µM (inactive) | 1.08 µM (active)
6 | O=C(O)c1nc2cc(C(F)(F)F)ccc2nc1Nc1ccc(Cl)c(Cl)c1 | 8.79 µM (inactive) | 14 µM (inactive) | 14.6 µM (inactive) | 12.9 µM (inactive) | 13 µM (inactive) | – | 17.7 µM (inactive) | 12.6 µM (inactive) | 4.3 µM (inactive) | 20.9 µM (inactive) | 16.8 µM (inactive) | 17.7 µM (inactive) | 20.5 µM (inactive) | 14.1 µM (inactive) | 10.3 µM (inactive) | 28.4 µM (inactive) | > 10 µM (inactive) | 2.96 µM (inactive) | 16.7 µM (inactive) | 12.3 µM (inactive)
7 | O=C1C2Cc3c(n(C(=O)c4ccccc4)c4ccccc34)CC2C(=O)N1c1ccc(Nc2ccc(N3C(=O)C4Cc5c(n(C(=O)c6ccccc6)c6ccccc56)CC4C3=O)cc2)cc1 (centres undefined) | > 100 µM (inactive) | > 100 µM (inactive) | > 100 µM (inactive) | > 100 µM (inactive) | 30.9 µM (inactive) | > 100 µM (inactive) | > 100 µM (inactive) | > 100 µM (inactive) | > 100 µM (inactive) | > 100 µM (inactive) | > 100 µM (inactive) | 58.1 µM (inactive) | > 100 µM (inactive) | > 100 µM (inactive) | > 100 µM (inactive) | > 100 µM (inactive) | 40.4 µM (inactive) | – | > 100 µM (inactive) | 61 µM (inactive)
8 | O=C(O)c1ccc(/N=C(\C(=N\c2ccc(C(=O)O)cc2)c2ccccc2)c2ccccc2)cc1 | > 100 µM (inactive) | > 100 µM (inactive) | > 100 µM (inactive) | > 100 µM (inactive) | > 100 µM (inactive) | > 100 µM (inactive) | > 100 µM (inactive) | > 100 µM (inactive) | > 100 µM (inactive) | > 100 µM (inactive) | > 100 µM (inactive) | – | > 100 µM (inactive) | > 100 µM (inactive) | > 100 µM (inactive) | – | – | > 100 µM (inactive) | > 100 µM (inactive) | > 100 µM (inactive)
9 | CC(C)C(OC(=O)c1ccc(NCc2cc(O)ccc2O)cc1)C(C)C | 5.77 µM (inactive) | 1.02 µM (active) | 1.29 µM (inactive) | 2.6 µM (inactive) | 2.28 µM (inactive) | 0.243 µM (active) | 2.09 µM (inactive) | 1.4 µM (inactive) | 1.32 µM (inactive) | 0.479 µM (active) | 1.87 µM (inactive) | 2.2 µM (inactive) | 0.746 µM (active) | 0.871 µM (active) | 1.14 µM (inactive) | 0.218 µM (active) | 0.102 µM (active) | 2.35 µM (inactive) | – | 1.29 µM (inactive)
10 | N#Cc1nc(-c2ccc(-c3nc(C#N)c(N)o3)cc2)oc1N | > 10 µM (inactive) | > 10 µM (inactive) | > 10 µM (inactive) | > 10 µM (inactive) | > 10 µM (inactive) | > 10 µM (inactive) | – | > 10 µM (inactive) | > 10 µM (inactive) | > 10 µM (inactive) | > 10 µM (inactive) | > 10 µM (inactive) | > 10 µM (inactive) | > 10 µM (inactive) | – | > 10 µM (inactive) | > 10 µM (inactive) | – | > 10 µM (inactive) | > 10 µM (inactive)
11 | COc1ccc([C@H]2C=C(c3cc(F)c(Cl)cc3Cl)N=c3s/c(=C\c4ccc(-c5ccc(Cl)cc5Cl)o4)c(=O)n32)cc1 | > 100 µM (inactive) | 34.8 µM (inactive) | 38.8 µM (inactive) | 60.1 µM (inactive) | 55.3 µM (inactive) | 31.9 µM (inactive) | 39.4 µM (inactive) | 37.8 µM (inactive) | 99.3 µM (inactive) | 39.6 µM (inactive) | 35.6 µM (inactive) | 36.6 µM (inactive) | 38.4 µM (inactive) | 19.6 µM (inactive) | 34.8 µM (inactive) | 80.5 µM (inactive) | – | 20.1 µM (inactive) | 21.5 µM (inactive) | 25.5 µM (inactive)
12 | CO/N=C(/C(=O)OC)c1ccccc1COc1ccccc1C(F)(F)F | 21.7 µM (inactive) | 47.3 µM (inactive) | 19.6 µM (inactive) | 30.2 µM (inactive) | 26.9 µM (inactive) | 15.1 µM (inactive) | > 100 µM (inactive) | > 100 µM (inactive) | 33.5 µM (inactive) | > 100 µM (inactive) | 32.6 µM (inactive) | 6.22 µM (inactive) | – | 25.2 µM (inactive) | 31.6 µM (inactive) | 20.1 µM (inactive) | 13 µM (inactive) | 20.8 µM (inactive) | 16.6 µM (inactive) | 26.3 µM (inactive)
13 | O=C(Nc1ccccc1)c1cc(S(=O)(=O)N2CCNNC2=O)c(S)cc1Cl | > 100 µM (inactive) | > 100 µM (inactive) | 84.9 µM (inactive) | > 100 µM (inactive) | > 100 µM (inactive) | 71.6 µM (inactive) | > 100 µM (inactive) | 32.3 µM (inactive) | > 100 µM (inactive) | 21.3 µM (inactive) | > 100 µM (inactive) | > 100 µM (inactive) | > 100 µM (inactive) | 44.5 µM (inactive) | > 100 µM (inactive) | > 100 µM (inactive) | 71.9 µM (inactive) | > 100 µM (inactive) | – | > 100 µM (inactive)
14 | NNC(=O)c1cccc2c1Oc1ccccc1S2 | – | 31.6 µM (inactive) | > 100 µM (inactive) | > 100 µM (inactive) | > 100 µM (inactive) | 55 µM (inactive) | – | 98.6 µM (inactive) | > 100 µM (inactive) | 59.3 µM (inactive) | 76.2 µM (inactive) | > 100 µM (inactive) | 50.6 µM (inactive) | 95.1 µM (inactive) | > 100 µM (inactive) | > 100 µM (inactive) | 63.1 µM (inactive) | > 100 µM (inactive) | 65.2 µM (inactive) | > 100 µM (inactive)
15 | NC(Cn1ccc(=O)c(O)c1)C(=O)O (centres undefined) [MIMOSINE] | > 100 µM (inactive) | > 100 µM (inactive) | – | > 100 µM (inactive) | > 100 µM (inactive) | 72.6 µM (inactive) | > 100 µM (inactive) | > 100 µM (inactive) | > 100 µM (inactive) | > 100 µM (inactive) | > 100 µM (inactive) | > 100 µM (inactive) | – | > 100 µM (inactive) | > 100 µM (inactive) | > 100 µM (inactive) | 33.7 µM (inactive) | > 100 µM (inactive) | > 100 µM (inactive) | > 100 µM (inactive)
